Test results as given in ChEMBL document CHEMBL1153677, “A novel series of 2-aminotetralins with high affinity and selectivity for the dopamine D3 receptor” (Bioorg Med Chem Lett, 1997).

Columns and labels:
[1] = target: D(2) dopamine receptor (Homo sapiens, UniProt P14416); assay: Displacement of [125I]iodosulpiride from human Dopamine receptor D2 expressed in CHO cells; format: cell-based
[2] = target: D(3) dopamine receptor (Homo sapiens, UniProt P35462); assay: Displacement of [125I]iodosulpiride from human Dopamine receptor D3 expressed in CHO cells; format: cell-based
[3] = target: T1, 5-hydroxytryptamine receptor 1A (Mus musculus, UniProt Q64264); assay: Ability to displace [125I]iodosulpiride from 5-hydroxytryptamine 1A receptor
T1 sequence (Q64264 whole entry): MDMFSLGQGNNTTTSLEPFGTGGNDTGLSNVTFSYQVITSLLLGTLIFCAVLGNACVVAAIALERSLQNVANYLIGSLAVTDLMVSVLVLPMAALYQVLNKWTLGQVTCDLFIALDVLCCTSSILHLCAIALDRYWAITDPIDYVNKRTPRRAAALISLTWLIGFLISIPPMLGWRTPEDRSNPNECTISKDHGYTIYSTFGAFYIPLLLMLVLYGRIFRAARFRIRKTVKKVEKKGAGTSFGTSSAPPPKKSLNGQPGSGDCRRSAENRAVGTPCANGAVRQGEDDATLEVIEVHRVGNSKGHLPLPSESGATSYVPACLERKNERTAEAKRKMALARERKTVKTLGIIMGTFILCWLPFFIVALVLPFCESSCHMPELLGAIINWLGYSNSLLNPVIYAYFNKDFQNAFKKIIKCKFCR

Sequence of D(2) dopamine receptor (P14416 whole entry): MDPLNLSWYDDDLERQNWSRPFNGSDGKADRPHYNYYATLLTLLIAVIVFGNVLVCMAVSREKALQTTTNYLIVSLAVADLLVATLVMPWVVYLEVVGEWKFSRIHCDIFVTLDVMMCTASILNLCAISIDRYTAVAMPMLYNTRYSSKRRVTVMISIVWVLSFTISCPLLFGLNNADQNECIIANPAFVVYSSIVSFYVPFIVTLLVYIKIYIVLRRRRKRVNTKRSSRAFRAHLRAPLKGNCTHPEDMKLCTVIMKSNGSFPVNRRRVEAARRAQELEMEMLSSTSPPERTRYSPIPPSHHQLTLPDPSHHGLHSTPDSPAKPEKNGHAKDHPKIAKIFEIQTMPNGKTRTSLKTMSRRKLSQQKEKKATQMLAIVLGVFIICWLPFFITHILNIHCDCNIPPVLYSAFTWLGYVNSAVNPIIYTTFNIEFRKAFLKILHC
Sequence of D(3) dopamine receptor (P35462 whole entry): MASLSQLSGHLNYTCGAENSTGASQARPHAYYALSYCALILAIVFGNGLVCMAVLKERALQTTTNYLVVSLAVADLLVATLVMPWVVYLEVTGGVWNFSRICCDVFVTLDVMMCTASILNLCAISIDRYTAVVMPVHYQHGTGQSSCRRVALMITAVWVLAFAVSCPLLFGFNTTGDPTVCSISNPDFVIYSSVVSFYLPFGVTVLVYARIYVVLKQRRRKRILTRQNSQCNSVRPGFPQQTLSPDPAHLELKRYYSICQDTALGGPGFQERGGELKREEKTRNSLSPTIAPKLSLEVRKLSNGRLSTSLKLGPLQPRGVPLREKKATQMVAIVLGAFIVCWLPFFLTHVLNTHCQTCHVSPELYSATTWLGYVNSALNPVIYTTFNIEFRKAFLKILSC

Ki [1] [nM]	Ki [2] [nM]	Ki [3] [nM]	Structure (SMILES)
398	1.58		CCCN(CCCCNC(=O)c1ccc(-c2ccccc2)cc1)C1CCc2c(Cl)cccc2C1 (stereo not given)
316	1.58		CCCN(CCCCNC(=O)c1ccc(-c2ccccc2)cc1)C1CCc2ccccc2C1 (stereo not given)
251	1.26		CCCN(CCCCNC(=O)c1ccc(-c2ccccc2)cc1)C1CCc2c(cccc2OS(C)(=O)=O)C1 (stereo not given)
794	2.51		CCCN(CCCCNC(=O)c1ccc(-c2ccccc2)cc1)C1CCc2c(cccc2OCC2CC2)C1 (stereo not given)
		3.16	COc1ccccc1N1CCN(CCCCNC(=O)c2ccc(-c3ccc(C(C)=O)cc3)cc2)CC1
126	2.51		CN(CCCCNC(=O)c1ccc(-c2ccccc2)cc1)C1CCc2c(O)cccc2C1 (stereo not given)
316	12.6		COc1cccc2c1CCC(N(C)CCCCNC(=O)c1ccc(-c3ccccc3)cc1)C2 (stereo not given)

Continued, compound first:

Structure (SMILES)	Ki [1] [nM]	Ki [2] [nM]	Ki [3] [nM]
CCCN(CCCCNC(=O)c1ccc(-c2ccccc2)cc1)C1CCc2c(O)cccc2C1 (stereo not given)	25.1	0.2	
CCCN(CCCCNC(=O)c1ccc(-c2ccccc2)cc1)C1CCc2c(cccc2OC)C1 (stereo not given)	126	0.794	
CCCN(CCCCNC(=O)c1ccc(-c2ccccc2)cc1)C1CCc2c(cccc2C(N)=O)C1 (stereo not given)	631	3.98	
CCCN(CCCCNC(=O)c1ccc(-c2ccccc2)cc1)C1CCc2c(C#N)cccc2C1 (stereo not given)	100	0.501	
CCCN(CCCCNC(=O)c1ccc(-c2ccccc2)cc1)C1CCc2c(cccc2OS(=O)(=O)C(F)(F)F)C1 (stereo not given)	398	1.58	
CCCN(CCCCNC(=O)c1ccc(-c2ccccc2)cc1)C1CCc2c(Br)cccc2C1 (stereo not given)	251	1.26	
